The values that follow are results of earlier work, collected in patent publication US20110256072A1, “FOOD AND COMPOSITION EACH COMPRISING PHOSPHORYLATED SACCHARIDE, POLYPHENOL AND FLUORIDE” (EZAKI GLICO CO., LTD., priority 2008, published 2011).

Molecules are shown by their SMILES. Where “and” joins values, the source holds several entries; their conditions need not be identical. Equal entries are not always repeated. Where two headings read alike, the source gives them in different places.

The series has as its system dental caries.

In the case of `[F-].[Na+]` [NaF: 0.05% every day method, NaF], under “Fluoride mouth washing method, 226 ppm, Permanent tooth”, the Inhibition rate is 20-50%. `[F-].[Na+]` [2% Sodium fluoride solution, Sodium fluoride]: the Inhibition rate (in vivo) is on record as 20-40%. Turning to `[F][Sn][F]` [SnF2: 8% Solution, SnF2], for the setting “Local application to dental surface, 19,400 ppm, Permanent tooth”, the Inhibition rate is given as 20-50%. As to `[F-].[Na+]` [Sodium fluoride], the Inhibition rate (in vivo) was 25-50% and 20-40% and ~30%.
